From paper PMC5562778 (Archives of Toxicology, 2017)

Experiments:
Chinese liver microsomes = experiment: Microsomal conversion of estragole by Chinese liver microsomes (NADPH)
Description: (§1) The incubation mixtures contained (final concentrations) 3 mM NADPH and 1 mg/mL microsomal protein in 0.2 M Tris–HCl (pH 7.4). Incubations were performed for 10 min at substrate concentrations ranging from 25 to 1000 μM, after which the reaction was terminated by adding 25 μL ice-cold acetonitrile. Blank incubations were performed in the absence of the cofactor NADPH. All incubations were performed in triplicate. In the supporting materials 2, detailed information can be found (Table S1 can be used to keep track of detailed information).
(§2) Before UPLC analysis, all samples were centrifuged for 5 min at 16,000 g to precipitate microsomal proteins. Supernatant of each sample was analyzed on UPLC using a BEH C18 (1.7 μm, 2.1 × 50 mm) column with a guard column and a diode array detector (Acquity, Waters). […] Table S1 can be used to keep track of detailed information.
(§3) The apparent maximum velocity (V max) and the apparent Michaelis–Menten constant (K m) were determined by fitting the data to this equation using GraphPad Prism version 5.0 (GraphPad software, San Diego California USA).
(§4) The incubation mixtures contained (final concentrations) 3 mM NADPH and 1 mg/ml microsomal protein in 0.2 M Tris-HCl (pH 7.4). […] Incubations were performed for 10 min at substrate concentrations ranging from 25 to 1000 μM, after which the reaction was terminated by adding 25 μl ice-cold acetonitrile. […] Blank incubations were performed in the absence of the cofactor NADPH. All incubations were performed in triplicate.
The flow rate was 0.6 ml/min and the gradient started with 100 % ultrapure water.

[1] = test system: Caucasian liver microsomes; experiment: Microsomal conversion of estragole by Caucasian liver microsomes (NADPH); assay type: in vitro ADME, human
Description: as §1
as §2, with “information. […] 3′-Hydroxyanethole was quantified by comparison of the peak areas of the metabolite in the chromatograms obtained at a wavelength of 206 nm to the calibration curve of the synthesized reference compound (Agharahimi and LeBel [1995]; Drinkwater et al. [1976]; Iyer et al. [2003]; Luo et al. [1992]).” for “information.”
as §3, §4
The flow rate was 0.6 ml/min and the gradient started with 100 % ultrapure water. After 1 min, the amount of acetonitrile was increased to 10 % and kept at that level for 1 min, after which the percentage of acetonitrile was increased to 35 % in 2.5 min and then increased to 100 % over 0.5 minute and kept at 100 % acetonitrile for another 1 min, and finally back to the starting conditions.

Chinese liver S9 = experiment: Sulfation of 1′-hydroxyestragole by Chinese liver S9 (PAPS, GSH trapping); assay type: in vitro ADME, human
Description: (§5) The formation of 1′-sulfooxyestragole was determined by incubating 0.2 mg/mL pooled mixed gender Chinese or Caucasian liver S9 in the presence of 0.2 mM PAPS as cofactor and 10 mM GSH as trapping agent for the reactive 1′-sulfooxyestragole in 0.1 M potassium phosphate (pH 8.0). The incubations were carried out for 2 h, and the reactions were terminated by adding 25 μL ice-cold acetonitrile. The blank samples were performed without cofactor. All incubations were performed in triplicate. In the supporting materials 2, detailed information can be found (Table S1 can be used to keep track of detailed information).
(§6) Before UPLC analysis, all samples were centrifuged for 5 min at 16, 000 g to precipitate microsomal or cytosolic proteins. Supernatant of each sample was analyzed on UPLC using a BEH C18 (1.7 μm, 2.1 × 50 mm) column with a guard column and a diode array detector (Acquity, Waters). Secondary metabolism of 1′-hydroxyestragole includes glucuronidation, oxidation, and sulfation. The gradient of analysis of the metabolites of 1′-hydroxyestragole can be found in supporting materials 2. Table S1 can be used to track more detailed information.
(§7) Since the UV spectrum of 3′-hydroxyanethole is similar to that of the GSH adduct of 1′-sulfooxyestragole, quantification of 1′-sulfooxyestragole could be achieved by comparing the peak area of the GSH adduct of 1′-sulfooxyestragole to the calibration curve of 3′-hydroxyanethole at a wavelength 260 nm as described for the quantification of 1′-sulfooxysafrole and 1′-sulfooxyelemicin (Martati et al. [2012]; Van den Berg et al. [2012]). The amount of 1′-sulfooxyestragole GSH adduct formed was corrected for the amount detected in the blank samples performed without the respective cofactor PAPS.
as §3
(§8) The formation of 1'-sulfooxyestragole was determined by incubating 0.2 mg/ml pooled mixed gender Chinese or Caucasian liver S9 in the presence of 0.2 mM PAPS as cofactor and 10 mM GSH as trapping agent for the reactive 1'-sulfooxyestragole in 0.1 M potassium phosphate (pH 8.0). The final volume of the incubations was 100 μl with the substrate 1'-hydroxyestragole ranging from 15 to 2000 μM added from 100 times concentrated stock solutions in DMSO. As previously described by Martati et al. (Martati et al. 2011) and Al-Subeihi et al. (Al-Subeihi et al. 2011), the reactions were started by adding substrate after a pre-incubation at 37 °C for 1 min. The incubations were carried out for 2 hours and the reactions were terminated by adding 25 μl ice-cold acetonitrile. […] The blank samples were performed without cofactor. All incubations were performed in triplicate.
(§9) For detection of the GSH conjugate of 1'-sulfooxyestragole, the flow rate was 0.6 ml/min and the mobile phase was made with acetonitrile and ultrapure water with 0.1 % (v/v) TFA. A linear gradient started from 20 to 30 % acetonitrile in 4.5 min, after which the percentage of acetonitrile was increased to 100 % in 0.3 min and kept at 100 % for another 0.2 min and finally set back to the starting condition.

SULT = SULT mediated conversion of 7-hydroxycoumarin to 7-hydroxycoumarin sulfate, liver S9; assay type: in vitro ADME, human
Description: (§10) The quality of the Chinese and Caucasian liver microsomes was checked by measuring the activity of CYP1A2 and CYP2A6 by the method of Yang et al. ([2012]). The quality of Chinese and Caucasian liver S9 samples was checked by measuring the SULT activity based on the method provided by Wang et al. ([2006]). The details of the methods for the microsomal and S9 in vitro incubations and UPLC analysis for assessing the metabolic capabilities of CYP and SULT enzymes can be found in the supporting materials 1.
(§11) Before UPLC analysis, all samples were centrifuged for 5 min at 16, 000g to precipitate microsomal or cytosolic proteins. Supernatant of each sample was analyzed on UPLC using a BEH C18 (1.7 μm 2.1×50 mm) column with a guard column and a diode array detector (Acquity, Waters).

Caucasian liver S9 = experiment: Sulfation of 1′-hydroxyestragole by Caucasian liver S9 (PAPS, GSH trapping); assay type: in vitro ADME, human
Description: as §5, §6, §7, §3, §8, §9

CYP 2A6 [2] = target: T1, CYP 2A6 (Homo sapiens, UniProt P11509); experiment: CYP 2A6 mediated 7-hydroxylation of coumarin, liver microsomes; assay type: in vitro ADME
T1 construct: tissue PrimeTox (Chinese pool); BD Gentest (Caucasian pool); host or cells: pooled mixed-gender human liver microsomes
T1 sequence (P11509 1-494): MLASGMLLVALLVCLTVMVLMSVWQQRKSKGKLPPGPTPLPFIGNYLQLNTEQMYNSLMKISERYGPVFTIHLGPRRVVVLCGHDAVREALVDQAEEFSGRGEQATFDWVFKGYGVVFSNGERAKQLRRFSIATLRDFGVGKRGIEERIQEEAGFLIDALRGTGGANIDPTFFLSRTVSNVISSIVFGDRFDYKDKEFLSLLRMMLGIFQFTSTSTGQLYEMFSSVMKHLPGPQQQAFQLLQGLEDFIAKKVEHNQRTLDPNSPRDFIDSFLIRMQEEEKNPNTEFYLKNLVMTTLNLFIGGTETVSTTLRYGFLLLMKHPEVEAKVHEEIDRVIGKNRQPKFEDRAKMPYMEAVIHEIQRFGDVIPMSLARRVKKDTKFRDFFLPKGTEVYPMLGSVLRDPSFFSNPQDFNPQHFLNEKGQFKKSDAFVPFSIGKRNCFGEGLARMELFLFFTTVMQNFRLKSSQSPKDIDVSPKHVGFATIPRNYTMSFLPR
Description: as §10
The quality of the Chinese and Caucasian liver microsomes was checked by measuring the activity of CYP 1A2 and CYP 2A6 by the method of Yang et al. (Yang et al. 2012). CYP 1A2 and CYP 2A6 are predominant enzymes for formation of 1'-hydroxyestragole (Jeurissen et al. 2007). The activity of CYP 1A2 was measured with the substrate phenacetin, and the activity of CYP 2A6 was checked using the substrate coumarin. […] The samples were centrifuged for 5 min at 16, 000g to precipitate microsomal proteins and analyzed by UPLC.
as §11

CYP 2A6 [3] = target: T1, CYP 2A6; set-up: method as in Yang et al. 2012; conditions: ref Yang et al. 2012, cited from earlier work
[4] = formation of the metabolite from estragole, Chinese liver microsomes, average ± SEM
[5] = in vitro, liver microsomes, conversion of estragole
[6] = formation of the metabolite from estragole, Caucasian liver microsomes, average ± SEM
[7] = formation from 1′-hydroxyestragole (sulfation), Chinese liver S9
[8] = formation from 1′-hydroxyestragole (sulfation), Caucasian liver S9

C=CC(O)c1ccc(OC)cc1 (centres unmarked) [1′-Hydroxyestragole]
Catalytic efficiency (scaled V max / K m) (Chinese liver microsomes; formation from estragole, Chinese, scaled to liver): 15.0 µL/h/g liver | Scaled V max (Chinese liver microsomes; formation from estragole, Chinese, scaled with microsomal protein yield 35 mg/(g tissue)): 0.7 µmol/h/g liver | K m (Chinese liver microsomes; [4]): 49 ± 8 µM | V max (Chinese liver microsomes; [4]): 0.35 ± 0.01 nmol /min/mg microsomal or S9 protein | Catalytic efficiency for formation of the metabolite, lower in Chinese than in Caucasian samples (Chinese liver microsomes; [5]): 2.4 fold | V max for formation of the metabolite, lower in Chinese than in Caucasian samples (Chinese liver microsomes; [5]): 3.4 fold | V max, lower in Chinese than in Caucasian liver incubations (Chinese liver microsomes; scaled kinetic constants (Table 3), conversion of estragole): 3.5 fold | Catalytic efficiency (scaled V max / K m) ([1]; formation from estragole, Caucasian, scaled to liver): 40.3 µL/h/g liver | Scaled V max ([1]; formation from estragole, Caucasian, scaled with microsomal protein yield 35 mg/(g tissue)): 2.5 µmol/h/g liver | Catalytic efficiency (V max/K m × 1000) ([1]; formation of the metabolite from estragole, Caucasian liver microsomes): 19.3 µL/min/mg microsomal or S9 protein | K m [1, 6]: 62 ± 9 µM | V max [1, 6]: 1.19 ± 0.04 nmol /min/mg microsomal or S9 protein | Scaled catalytic efficiency for sulfation, lower for Chinese than Caucasian samples (Chinese liver S9; scaled to liver, sulfation of 1′-hydroxyestragole to 1′-sulfooxyestragole): 4.5 fold

O=c1ccc2ccc(O)cc2o1 [7-hydroxycoumarin]
Vmax for SULT mediated conversion, both ethnic groups compared (SULT; Chinese and Caucasian liver S9): similar | Km at 10 min (SULT; human, pH 7.4, Chinese liver S9): 1.7 µM

C=CC(OS(=O)(=O)O)c1ccc(OC)cc1 (centres unmarked) [1′-Sulfooxyestragole]
Catalytic efficiency (V max/K m × 1000) (Chinese liver S9; [7]): 0.0021 µL/min/mg microsomal or S9 protein | K m (Chinese liver S9; [7]): 694 ± 321 µM | V max (Chinese liver S9; [7]): 0.0014 ± 0.0002 nmol /min/mg microsomal or S9 protein | Catalytic efficiency for formation of 1′-sulfooxyestragole, lower in Chinese than in Caucasian samples (Chinese liver S9; in vitro, sulfation of 1′-hydroxyestragole, liver S9): fivefold | Scaled V max (Chinese liver S9; sulfation of 1′-hydroxyestragole, Chinese, S9 protein yield 143 mg/(g tissue)): 0.01 µmol/h/g liver | Catalytic efficiency (scaled V max / K m) (Chinese liver S9; sulfation of 1′-hydroxyestragole, Chinese, scaled to liver): 0.02 µL/h/g liver | Catalytic efficiency (V max/K m × 1000) (Caucasian liver S9; [8]): 0.01 µL/min/mg microsomal or S9 protein | K m (Caucasian liver S9; [8]): 423 ± 159 µM | V max (Caucasian liver S9; [8]): 0.004 ± 0.0005 nmol /min/mg microsomal or S9 protein | Scaled V max (Caucasian liver S9; sulfation of 1′-hydroxyestragole, Caucasian, S9 protein yield 143 mg/(g tissue)): 0.03 µmol/h/g liver | Catalytic efficiency (scaled V max / K m) (Caucasian liver S9; sulfation of 1′-hydroxyestragole, Caucasian, scaled to liver): 0.08 µL/h/g liver

O=c1ccc2ccccc2o1 [coumarin]
Catalytic efficiency of CYP 2A6 mediated conversion, lower in Chinese than Caucasian liver microsomes (CYP 2A6 [2]): 1.6 fold | Catalytic efficiency for CYP 2A6 (CYP 2A6 [3]; Chinese liver microsomes, literature range): 150-1776 µl/min/(mg microsomal protein) | CYP 2A6 catalyzed activity, Chinese versus Caucasian liver microsomes (CYP 2A6 [3]): no difference
